In patent publication US11708348B2, “Protease inhibitors for treatment of coronavirus infections” (The Scripps Research Institute, priority 2021, dated 2023):
Read-outs that look alike come from different tables or passages of the source.

Tested on: SARS-CoV-2 strain USA-WA1/2020
Test: microbe, parasite or virus in culture
Assay type: cell-based
Details: Severe acute respiratory syndrome coronavirus 2, HeLa-ACE2, 24 h, read-out: EC50, uM (Hela)
[1] = HeLa-ACE2 cells, SARS-CoV-2 infection, 24 h, class symbols

| SMILES | EC50 [1] | other results |
| --- | --- | --- |
| Cc1cccc(NC(=O)C(=O)N[C@@H](CC(C)C)C(=O)N[C@@H](C[C@@H]2CCNC2=O)C(=O)COc2c(F)c(F)cc(F)c2F)c1C [Compound 65, N1-(2,3-dimethylphenyl)-N2-((S)-4-methyl-1-oxo-1-(((S)-3-oxo-1-((S)-2-oxopyrrolidin-3-yl)-4-(2,3,5,6-tetrafluorophenoxy)butan-2-yl)amino)pentan-2-yl)oxalamide] | < 0.05 µM |  |
| CC(C)C[C@H](NC(=O)/C=C/c1ccccc1)C(=O)N[C@@H](C[C@@H]1CCNC1=O)C(=O)COc1c(F)c(F)cc(F)c1F [Compound 66, (S)-2-cinnamamido-4-methyl-N-((S)-3-oxo-1-((S)-2-oxopyrrolidin-3-yl)-4-(2,3,5,6-tetrafluorophenoxy)butan-2-yl)pentanamide] | 0.05 to 0.2 µM |  |
| CC(C)C[C@H](NC(=O)c1cc(-c2ccccc2F)on1)C(=O)N[C@@H](C[C@@H]1CCNC1=O)C(=O)COc1c(F)c(F)cc(F)c1F [Compound 67, 5-(2-fluorophenyl)-N-((S)-4-methyl-1-oxo-1-(((S)-3-oxo-1-((S)-2-oxopyrrolidin-3-yl)-4-(2,3,5,6-tetrafluorophenoxy)butan-2-yl)amino)pentan-2-yl)isoxazole-3-carboxamide] | 0.2 to 0.5 µM |  |
| Cc1ccc(NC(=O)C(=O)N[C@@H](CC(C)C)C(=O)N[C@@H](C[C@@H]2CCNC2=O)C(=O)COc2c(F)c(F)cc(F)c2F)c(F)c1 [Compound 68, N1-(2-fluoro-4-methylphenyl)-N2-((S)-4-methyl-1-oxo-1-(((S)-3-oxo-1-((S)-2-oxopyrrolidin-3-yl)-4-(2,3,5,6-tetrafluorophenoxy)butan-2-yl)amino)pentan-2-yl)oxalamide] | < 0.05 µM |  |
| CC(C)C[C@H](NC(=O)C(=O)NC1CCCCC1)C(=O)N[C@@H](C[C@@H]1CCNC1=O)C(=O)COc1c(F)c(F)cc(F)c1F [Compound 69, N1-cyclohexyl-N2-((S)-4-methyl-1-oxo-1-(((S)-3-oxo-1-((S)-2-oxopyrrolidin-3-yl)-4-(2,3,5,6-tetra-fluorophenoxy)butan-2-yl)amino)pentan-2-yl)oxalamide] | 0.05 to 0.2 µM |  |
| CC(C)C[C@H](NC(=O)c1cc(-c2ccccc2)on1)C(=O)N[C@@H](C[C@@H]1CCNC1=O)C(=O)COc1c(F)c(F)cc(F)c1F [Compound 70, N-((S)-4-methyl-1-oxo-1-(((S)-3-oxo-1-((S)-2-oxopyrrolidin-3-yl)-4-(2,3,5,6-tetrafluoro-phenoxy)butan-2-yl)amino)pentan-2-yl)-5-phenylisoxazole-3-carboxamide] | 0.2 to 0.5 µM |  |
| CC(C)C[C@H](NC(=O)C(=O)Nc1cccc(F)c1F)C(=O)N[C@@H](C[C@@H]1CCNC1=O)C(=O)COc1c(F)c(F)cc(F)c1F [Compound 71, N1-(2,3-difluorophenyl)-N2-((S)-4-methyl-1-oxo-1-(((S)-3-oxo-1-((S)-2-oxopyrrolidin-3-yl)-4-(2,3,5,6-tetrafluorophenoxy)butan-2-yl)amino)pentan-2-yl)oxalamide] | 0.05 to 0.2 µM |  |
| CC(C)C[C@H](NC(=O)C(=O)Nc1cc(F)ccc1F)C(=O)N[C@@H](C[C@@H]1CCNC1=O)C(=O)COc1c(F)c(F)cc(F)c1F [Compound 72, Nl-(2,5-difluorophenyl)-N2-((S)-4-methyl-1-oxo-1-(((S)-3-oxo-1-((S)-2-oxopyrrolidin-3-yl)-4-(2,3,5,6-tetrafluorophenoxy)butan-2-yl)amino)pentan-2-yl)oxalamide] | 0.05 to 0.2 µM |  |
| CC(C)C[C@H](NC(=O)C(=O)Nc1ccccc1)C(=O)N[C@@H](C[C@@H]1CCNC1=O)C(=O)COP(=O)(c1ccccc1)c1ccccc1 [Compound 73, (S)-3-((S)-4-methyl-2-(2-oxo-2-(phenylamino)acetamido)-pentanamido)-2-oxo-4-((S)-2-oxopyrrolidin-3-yl)butyl-diphenylphosphinate] |  | EC50: 0.05 to 0.2 µM |
| Cc1cc(F)ccc1NC(=O)C(=O)N[C@@H](CC(C)C)C(=O)N[C@@H](C[C@@H]1CCNC1=O)C(=O)COc1c(F)c(F)cc(F)c1F [Compound 74, N1-(4-fluoro-2-methylphenyl)-N2-((S)-4-methyl-1-oxo-1-(((S)-3-oxo-1-((S)-2-oxopyrrolidin-3-yl)-4-(2,3,5,6-tetrafluorophenoxy)butan-2-yl)amino)pentan-2-yl)oxalamide] | 0.2 to 0.5 µM |  |
| CC(C)C[C@H](NC(=O)C(=O)Nc1ccccc1C#N)C(=O)N[C@@H](C[C@@H]1CCNC1=O)C(=O)COc1c(F)c(F)cc(F)c1F [Compound 75, N1-(2-cyanophenyl)-N2-((S)-4-methyl-1-oxo-1-(((S)-3-oxo-1-((S)-2-oxopyrrolidin-3-yl)-4-(2,3,5,6-tetra-fluorophenoxy)butan-2-yl)amino)pentan-2-yl)oxalamide] | 0.05 to 0.2 µM |  |
| CC(C)C(F)(F)C(NC(=O)C(=O)Nc1ccccc1F)C(=O)N[C@@H](C[C@@H]1CCNC1=O)C(=O)COc1c(F)c(F)cc(F)c1F (stereo partly drawn) [Compound 76, N1-(3,3-difluoro-4-methyl-1-oxo-1-(((S)-3-oxo-1-((S)-2-oxopyrrolidin-3-yl)-4-(2,3,5,6-tetrafluorophenoxy)butan-2-yl)amino)pentan-2-yl)-N2-(2-fluorophenyl)oxalamide] | 0.05 to 0.2 µM |  |
| Cc1cc(Cl)ccc1NC(=O)C(=O)N[C@@H](CC(C)C)C(=O)N[C@@H](C[C@@H]1CCNC1=O)C(=O)COc1c(F)c(F)cc(F)c1F [Compound 77, N1-(4-chloro-2-methylphenyl)-N2-((S)-4-methyl-1-oxo-1-(((S)-3-oxo-1-((S)-2-oxopyrrolidin-3-yl)-4-(2,3,5,6-tetrafluorophenoxy)butan-2-yl)amino)pentan-2-yl)oxalamide] | < 0.05 µM |  |
| CC(C)C[C@H](NC(=O)C(=O)Nc1ccc(F)cc1F)C(=O)N[C@@H](C[C@@H]1CCNC1=O)C(=O)COc1c(F)c(F)cc(F)c1F [Compound 78, N1-(2,4-difluorophenyl)-N2-((S)-4-methyl-1-oxo-1-(((S)-3-oxo-1-((S)-2-oxopyrrolidin-3-yl)-4-(2,3,5,6-tetrafluorophenoxy)butan-2-yl)amino)pentan-2-yl)oxalamide] | < 0.05 µM |  |
| COc1ccc(F)cc1NC(=O)C(=O)N[C@@H](CC(C)C)C(=O)N[C@@H](C[C@@H]1CCNC1=O)C(=O)COc1c(F)c(F)cc(F)c1F [Compound 79, N1-(5-fluoro-2-methoxyphenyl)-N2-((S)-4-methyl-1-oxo-1-(((S)-3-oxo-1-((S)-2-oxopyrrolidin-3-yl)-4-(2,3,5,6-tetrafluorophenoxy)butan-2-yl)amino)pentan-2-yl)oxalamide] | 0.05 to 0.2 µM |  |
| CC(C)C[C@H](NC(=O)C(=O)Nc1ccccc1F)C(=O)N[C@@H](CC1CCCCC1)C(=O)COc1c(F)c(F)cc(F)c1F [Compound 80, N1-((S)-1-(((S)-1-cyclohexyl-3-oxo-4-(2,3,5,6-tetrafluorophenoxy)butan-2-yl)amino)-4-methyl-1-oxopentan-2-yl)-N2-(2-fluorophenyl)oxalamide] |  | EC50 (HeLa-ACE2 cells, SARS-CoV-2 infection, 24 h, cells given as a bound): > 1 µM |
| CC(C)C[C@H](NC(=O)C(=O)NCC1CCCC1)C(=O)N[C@@H](C[C@@H]1CCNC1=O)C(=O)COc1c(F)c(F)cc(F)c1F [Compound 81, N^1-(cyclopentylmethyl)-N^2—((S)-4-methyl-1-oxo-1-(((S)-3-oxo-1-((S)-2-oxopyrrolidin-3-yl)-4-(2,3,5,6-tetrafluorophenoxy)butan-2-yl)amino)pentan-2-yl)oxalamide] | 0.05 to 0.2 µM |  |
